Results from patent US5036059A, “1,4-Dihydropyridine-3-carboxylate derivatives” (Nippon Shinyaku Company, Limited, priority 1984, dated 1991).
Counter-ions that a name gives are not always drawn.

Legend:
[1] = tested on: spontaneously hypertensive rats; assay: Hypotensive action in spontaneously hypertensive rats, systolic arterial blood pressure by tail plethysmography, oral; assay type: in vivo; details: 30 mg/kg p.o.
Description: (§1) Hypotensive action of diltiazem (which is a known hypotensive drug) measured by the same method at the doses of 3, 10 and 30 mg/kg were 0, 11.2 and 33.0%, respectively. Hypotensive action of the compound of Example 4 which is one of the most representative compounds of this invention was tested using spontaneously hypertensive rats and was compared with those of Nifedipine and Diltiazem hydrochloride. The method applied was that the drugs were orally given to the rats of which systolic arterial blood pressure were higher than 180 mmHg when it was measured plethysmographically using tail arteries. (Table 3)
Doses in mg/kg (p.o.) are as follows: *0.3 (1.0); **1.0 (3.0); ***30.

guinea pig heart = assay: Coronary vasodilating action, constant pressure perfusion of isolated guinea pig heart (Langendorff); details: Cavia porcellus, via coronary artery; for activation at 0.001 mg: 10^-6 gram/heart; for activation at 0.001 mg / activation at 0.0001 mg: read-out: Perfusion Increasing Rate; for activation at 0.0001 mg: 10^-7 gram/heart
Description: Constant pressure perfusion samples of guinea pig heart isolated by a method according to Langendorff were treated with the present invention compounds by administration via coronary artery and the effect was examined (Table 1).
With reference to coronary vasodilating action of diltiazem measured by the same method, the increasing rates in perfusion by administration of 10^-7, 10^-6 and 10^-5 gram/heart were 4, 16 and 55%, respectively.

[2] = tested on: rats (with normal blood pressure); assay: Hypotensive action, mean blood pressure of femoral artery in unanesthetized normotensive rats, oral; assay type: in vivo; details: Rattus norvegicus, read-out: % Decreases in Mean Blood Pressure [at peak effect]; for inhibition in vivo at 3 mg/kg: 3 mg/kg oral; for inhibition in vivo at 10 mg/kg: 10 mg/kg oral; for inhibition in vivo at 1 mg/kg: 1 mg/kg oral
Description: Blood pressure of femoral artery of rats (with normal blood pressure) under unanesthetized condition was measured directly using a pressure tranducer.
The present invention compounds were given orally at doses of 1, 3 and 10 mg/kg, and changes in blood pressure were continuously recorded. Percent decreases of mean blood pressure at the peak effect were calculated. The maximum changes in mean blood pressure (%) were shown as "hypotensive action" (Table 2).
as §1

Structure (SMILES) | activation at 0.001 mg (guinea pig heart) [%] | activation at 0.0001 mg (guinea pig heart) [%] | inhibition in vivo at 3 mg/kg [2] [%] | inhibition in vivo at 10 mg/kg [2] [%] | inhibition in vivo at 1 mg/kg [2] [%] | further results
COc1ccc([C@@H]2Sc3ccccc3N(CCN(C)C)C(=O)[C@@H]2OC(C)=O)cc1 [Diltiazem.HCl] | – | – | – | – | – | systolic arterial blood pressure ([1]; 0.5 hr after administration): 153.6 ± 5.4; systolic arterial blood pressure ([1]; 1 hr after administration): 141.8 ± 10.8; systolic arterial blood pressure ([1]; 2 hr after administration): 156.2 ± 8.8; systolic arterial blood pressure ([1]; 3 hr after administration): 170.5 ± 4.8; systolic arterial blood pressure ([1]; 5 hr after administration): 183.2 ± 2.8; systolic arterial blood pressure ([1]; 8 hr after administration): 189.3 ± 4.6; systolic arterial blood pressure ([1]; 12 hr after administration): 188.5 ± 2.0; systolic arterial blood pressure ([1]; before administration): 191.2 ± 5.4
COc1ccc([C@@H]2Sc3ccccc3N(CCN(C)C)C(=O)[C@@H]2OC(C)=O)cc1 [diltiazem, reference compound] | 16 | 4 | 0 | 11.2 | – | activation at 1e-05 g/heart, 1e-05 g/heart (guinea pig heart; 10^-5 gram/heart, read-out: increasing rate in perfusion): 55%; inhibition in vivo at 30 mg/kg ([2]; 30 mg/kg oral): 33%
CCOC(=O)C1=C(C)NC(C)=C(P2(=O)OCC(C)(C)CO2)C1c1cccc([N+](=O)[O-])c1 (stereo not drawn) [Example 8, Ethyl 2,6-dimethyl-5-(5,5-dimethyl-2-oxo-1,3,2-dioxaphosphorinan-2-yl)-4-(3-nitrophenyl-1)-1,4-dihydropyridine-3-carboxylate] | 33 | 11 | 15.5 | 37.1 | 8.1 | –
CC1=C(C(=O)OC2CCN(Cc3ccccc3)CC2)C(c2cccc([N+](=O)[O-])c2)C(P2(=O)OCCCO2)=C(C)N1 (stereo not drawn) [Example 3, N-Benzyl-4-piperidinyl 2,6-dimethyl-4-(3-nitrophenyl)-5-(2-oxo-1,3,2-dioxaphosphorinan-2-yl)-1,4-dihydropyridine-3-carboxylate] | 18 | 10 | 11.1 | 20.9 | 8.2 | –
CCOC(=O)C1=C(C)NC(C)=C(P2(=O)OCC(C(C)C)CO2)C1c1cccc([N+](=O)[O-])c1 (stereo not drawn) [Example 32, Ethyl 2,6-dimethyl-4-(3-nitrophenyl)-5-(5-isopropyl-2-oxo-1,3,2-dioxaphosphorinan-2-yl)-1,4-dihydropyridine-3-carboxylate] | 77 | 24 | 21.2 | 30.5 | 7.8 | –
COC(=O)C1=C(C)NC(C)=C(P2(=O)OCCCO2)C1c1ccccc1C(F)(F)F (stereo not drawn) [Example 50, Methyl 2,6-dimethyl-5-(2-oxo-1,3,2-dioxaphosphorinan-2-yl)-4-(2-trifluoromethylphenyl)-1,4-dihydropyridine-3-carboxylate] | 46 | 15 | 44.3 | 47.2 | 42.3 | –
CC1=C(C(=O)OCCN(C)Cc2ccccc2)C(c2ccccc2C(F)(F)F)C(P2(=O)OCCCO2)=C(C)N1 (stereo not drawn) [Example 52] | 62 | 10 | 37.2 | 42.8 | 18.4 | –
COC(=O)C1=C(C)NC(C)=C(P2(=O)OCCCO2)C1c1ccccc1OC(F)F (stereo not drawn) [Example 53, Methyl 4-(2-difluoromethoxyphenyl)-2,6-dimethyl-5-(2-oxo-1,3,2-dioxaphosphorinan-2-yl)-1,4-dihydropyridine-3-carboxylate] | 25 | 16 | 45.4 | 49.7 | 24.5 | –
CC1=C(C(=O)OCCN(C)Cc2ccccc2)C(c2ccccc2C(F)(F)F)C(P2(=O)OCC(C)(C)CO2)=C(C)N1 (stereo not drawn) [Example 62, 2-(N-Benzyl-N-methylamino)-ethyl 2,6-dimethyl-5-(5,5-dimethyl-2-oxo-1,3,2-dioxaphosphorinan-2-yl)-4-(2-trifluoromethylphenyl)-1,4-dihydropyridine-3-carboxylate] | 70 | 19 | 37.4 | 48.3 | 10.6 | –
CCOC(=O)C1(C(=O)OCC)COP(=O)(C2=C(C)NC(C)=C(C(=O)OC)C2c2ccccc2[N+](=O)[O-])OC1 (stereo not drawn) [Example 46, Methyl 5-(5,5-diethoxycarbonyl-2-oxo-1,3,2-dioxaphosphorinan-2-yl)-2,6-dimethyl-4-(2-nitrophenyl)-1,4-dihydropyridine-3-carboxylate] | 19 | 12 | – | – | – | –
CCOC(=O)C1(C(=O)OCC)COP(=O)(C2=C(C)NC(C)=C(C(=O)OCCN(C)Cc3ccccc3)C2c2cccc([N+](=O)[O-])c2)OC1 (stereo not drawn) [Example 45, 2-(N-Benzyl-N-methylamino)-ethyl 5-(5,5-diethoxycarbonyl-2-oxo-1,3,2-dioxaphosphorinan-2-yl)-2,6-dimethyl-4-(3-nitrophenyl)-1,4-dihydropyridine-3-carboxylate] | 29 | 10 | – | – | – | –
CCC1(CC)COP(=O)(C2=C(C)NC(C)=C(C(=O)OCCN(C)Cc3ccccc3)C2c2cccc([N+](=O)[O-])c2)OC1 (stereo not drawn) [Example 22, 2-(N-Benzyl-N-methylamino)-ethyl 5-(5,5-diethyl-2-oxo-1,3,2-dioxaphosphorinan-2-yl)-2,6-dimethyl-4-(3-nitrophenyl)-1,4-dihydropyridine-3-carboxylate] | 31 | 21 | 10.4 | 18.4 | 7.3 | –
CC1=C(C(=O)OCCN(C)Cc2ccccc2)C(c2cccc(Cl)c2Cl)C(P2(=O)OCC(C)(C)CO2)=C(C)N1 (stereo not drawn) [Example 59, 2-(N-Benzyl-N-methylamino)-ethyl 4-(2,3-dichlorophenyl)-2,6-dimethyl-5-(5,5-dimethyl-2-oxo-1,3,2-dioxaphosphorinan-2-yl)-1,4-dihydropyridine-3-carboxylate] | 33 | 24 | 29.1 | 35.1 | 7.1 | –
CCCOCCOC(=O)C1=C(C)NC(C)=C(P2(=O)OC(C)(C)C(C)(C)O2)C1c1cccc([N+](=O)[O-])c1 (stereo not drawn) [Example 49, 2-n-Propoxyethyl 2,6-dimethyl-4-(3-nitrophenyl)-5-(2-oxo-4,4,5,5-tetramethyl-1,3,2-dioxaphospholan-2-yl)-1,4-dihydropyridine-3-carboxylate] | 34 | 14 | – | – | – | –
COC(=O)C1=C(C)NC(C)=C(P2(=O)OCC(C(C)C)CO2)C1c1ccccc1[N+](=O)[O-] (stereo not drawn) [Example 34, Methyl 2,6-dimethyl-5-(5-isopropyl-2-oxo-1,3,2-dioxaphosphorinan-2-yl)-4-(2-nitrophenyl)-1,4-dihydropyridine-3-carboxylate] | 38 | 13 | – | – | – | –
CC1=C(C(=O)OCCOCc2ccccc2)C(c2cccc([N+](=O)[O-])c2)C(P2(=O)OCC(C)(C)CO2)=C(C)N1 (stereo not drawn) [Example 12, 2-Benzyloxyethyl 2,6-dimethyl-5-(5,5-dimethyl-2-oxo-1,3,2-dioxaphosphorinan-2-yl)-4-(3-nitrophenyl)-1,4-dihydropyridine-3-carboxylate] | 67 | 14 | – | – | – | –
COC(=O)C1=C(C)NC(C)=C(P2(=O)OCCCO2)C1c1cccc(Cl)c1Cl (stereo not drawn) [Example 56, Methyl 4-(2,3-dichlorophenyl)-2,6-dimethyl-5-(2-oxo-1,3,2-dioxaphosphorinan-2-yl)-1,4-dihydropyridine-3-carboxylate] | 75 | 55 | – | – | – | –
CCC1COP(=O)(C2=C(C)NC(C)=C(C(=O)OC)C2c2ccccc2[N+](=O)[O-])OC1 (stereo not drawn) [Example 30, Methyl 5-(5-ethyl-2-oxo-1,3,2-dioxaphosphorinan-2-yl)-2,6-dimethyl-4-(2-nitrophenyl)-1,4-dihydropyridine-3-carboxylate] | 26 | 13 | – | – | – | –
CC1=C(C(=O)OCCN(C)Cc2ccccc2)C(c2cccc([N+](=O)[O-])c2)C(P2(=O)OC(C)CC(C)O2)=C(C)N1 (stereo not drawn) [Example 17, 2-(N-Benzyl-N-methylamino)-ethyl 2,6-dimethyl-5-(4,6-dimethyl-2-oxo-1,3,2-dioxaphosphorinan-2-yl)-4-(3-nitrophenyl)-1,4-dihydropyridine-3-carboxylate] | 23 | 10 | 36.8 | 47 | 24.8 | –
